Data from US20250032423A1, “HERBAL BIOACTIVES BASED IMMUNOSTIMULANT FORMULATION FOR POULTRY BIRDS & CATTLE AND PREPARATION THEREOF” (Edhas Technologies Inc., priority 2023, published 2025).
Each block holds one compound with its values, some of them ahead of it.

Tests used:
Pseudomonas aeruginosa = assay: MIC and fractional inhibitory concentration index (FICI) against Pseudomonas aeruginosa
[1] = ABTS radical scavenging assay
[2] = DPPH radical scavenging assay

Compound: COc1cc(/C=C/C(=O)CC(=O)/C=C/c2ccc(O)c(OC)c2)ccc1O [Curcumin]
MIC (Pseudomonas aeruginosa): 8100 µg/mL

Compound: O=C1O[C@H]([C@@H](O)CO)C(O)=C1O [Ascorbic acid]
IC50 (DPPH) [2]: 10 ppm | % Inhibition (DPPH scavenging) ([2]; 10 ppm): 58.80% | % Inhibition (DPPH scavenging) ([2]; 25 ppm): 64.65% | % Inhibition (DPPH scavenging) ([2]; 50 ppm): 66.42% | % Inhibition (DPPH scavenging) ([2]; 100 ppm): 71.18% | % Inhibition (DPPH scavenging) ([2]; 250 ppm): 87.60% | % Inhibition (DPPH scavenging) ([2]; 500 ppm): 90.65%

Second part, led by results:

MIC (Pseudomonas aeruginosa): 10100 µg/mL
Compound: C=CCc1ccc(O)c(OC)c1 [Eugenol]

IC50 (ABTS) [1]: 10 ppm
Compound: Cc1c(C)c2c(c(C)c1O)CCC(C)(C(=O)O)O2 (stereo not drawn) [Trolox]
% Inhibition (ABTS scavenging) ([1]; 10 ppm): 54.48% | % Inhibition (ABTS scavenging) ([1]; 25 ppm): 63.01% | % Inhibition (ABTS scavenging) ([1]; 50 ppm): 73.1% | % Inhibition (ABTS scavenging) ([1]; 100 ppm): 86.71% | % Inhibition (ABTS scavenging) ([1]; 250 ppm): 89.12% | % Inhibition (ABTS scavenging) ([1]; 500 ppm): 94.08% | % Inhibition (ABTS scavenging) ([1]; 1000 ppm): 99.24%

MIC (Pseudomonas aeruginosa): 9200 µg/mL
Compound: Cc1ccc(C(C)C)c(O)c1 [Thymol]
